Like-named read-outs stand apart in the source and are kept apart here.
Experiments:
pNL4-3 HIV-1 virus [1] = assay: microbe, parasite or virus in culture; details: Human immunodeficiency virus 1
Method: (§3) Compound stocks were prepared as 1.5 mM solution in 100% DMSO and vials were agitated for two hours at 50° C. Stock solutions were kept at −20° C., light protected as aliquots. Working dilutions (1/3 log) were prepared extemporaneously by serial dilutions in H2O/DMSO (95/5). Ten μL of working dilutions were then pipetted and directly tested for anti-HIV activity in the 200 μL final volume of the deCIPhR cellular assay format, yielding final concentrations of 7'500, 3'481, 1'616, 750, 348, 162, 75, 35, 16, 8 and 3 nM.
(§4) Fully infectious HIV-1 is produced from a proviral reference DNA reflecting a reference HIV-1 virus. […] The unique test format allows 3 to 5 rounds of viral replication and permits a dynamic parallel read-out of viral fitness and resistance to the respective drugs under investigation. Colorimetric readout (405 nm) is translated in percent viral inhibition through normalization with positive and negative control wells included in each 96 well-plate.
(§5) Each mutated proviral DNA is transfected into a human epitheloid cell line using lipofectant agent (lipofectamine 2000, Invitrogen) following the manufacturer's instructions. Cell to cell spread and replication of recombinant viruses is allowed for but also restricted to a period of four days in the absence or presence of specific drugs by co-culture with a second cell line expressing both chemokine receptors CXCR4 and CCR5. Finally, culture supernatants are transferred to a third reporter cell line also expressing both kinds of co-receptors. The infection is incubated for another 48 hours period, after which cells are fixed (formaldehyde/glutaraldehyde) prior to incubation with a chromogenic substrate for beta-galactosidase, typically ortho-nitrophenyl-galactopyranoside.
(§6) A range of twelve concentrations of each compound was tested in triplicates in the deCIPhR format on each mutated provirus.

pNL-AD87 HIV-1 virus [2] = assay: microbe, parasite or virus in culture; details: Human immunodeficiency virus 1
Method: (§7) Two compounds were evaluated for their activity as inhibitor of HIV replication on three different lab strains using the deCIPhR cellular format.
as §3
(§8) The DNA sequence coding for Vpu, Tat, Rev, Env, and Nef from the CCR5-tropic clone AD87 (HIV strain AD8, Genbank accession number #AF004394) was introduced by PCR-cloning into the reference proviral strain pNL4-3 (Genbank accession number #AF324493), where it replaced the corresponding region. Presence of insert was ascertained by restriction digest analysis and double sequencing on ABI 310 prism sequencer. After transfection, pNL-AD87 produces a full-length infectious virus often used as reference for a B-Subtype, CCR5-tropic strain (Theodore et al., 1996).
(§9) Principle of Dual-Enhancement of Cell-Infection to Phenotype Resistance (deCIPhR™): deCIPhR test is a proprietary assay system developed by InPheno AG (FIG. 7):
(§10) Fully infectious HIV-1 is produced from a proviral reference DNA reflecting a reference HIV-1 virus. Recombinants carrying an exchanged specific-sequence (e.g. mutants resistant to existing HIV-1 inhibitors or sequences issued from clinical situations) can easily be engineered by PCR-based amplification/ligation (see paragraph 3). The unique test format allows 3 to 5 rounds of viral replication and permits a dynamic parallel read-out of viral fitness and resistance to the respective drugs under investigation. Colorimetric readout (405 nm) is translated in percent viral inhibition through normalization with positive and negative control wells included in each 96 well-plate. […]

[3] = tested on: "D-I-A" mutant (pNL-Bal, gp41 G36D, V38A); details: for IC50: "D-I-A" mutant, R5; for Rf (resistance factor: IC50 on mutant virus / IC50 on reference strain): "D-I-A" vs pNL-Bal; for Resistance factor (IC50 mut/IC50 wt) IC50 fold increase: Table II, "D-I-A" vs wild-type pNL-Bal
pNL-Bal HIV-1 virus [4] = assay: microbe, parasite or virus in culture; details: Human immunodeficiency virus 1, BAL
Method: as §7, §3
(§11) The DNA sequence coding for Vpu, Tat, Rev, Env, and Nef from the CCR5-tropic clone BAL2 (HIVBAL2A, Genbank accession number #M68894) was introduced by PCR-cloning into the reference proviral strain pNL4-3 (Genbank accession number #AF324493), where it replaced the corresponding region. Presence of insert was ascertained by restriction digest analysis and double sequencing on ABI 310 prism sequencer. After transfection, pNL-BaL produces a full-length infectious virus often used as reference for a B-Subtype, CCR5-tropic strain (Donaldson et al., 1994).
as §9
(§12) Fully infectious HIV-1 is produced from a proviral reference DNA reflecting a reference HIV-1 virus. Recombinants carrying an exchanged specific-sequence (e.g. mutants resistant to existing HIV-1 inhibitors or sequences issued from clinical situations) can easily be engineered by PCR-based amplification/ligation (see paragraph 3). The unique test format allows 3 to 5 rounds of viral replication and permits a dynamic parallel read-out of viral fitness and resistance to the respective drugs under investigation. Colorimetric readout (405 nm) is translated in percent viral inhibition through normalization with positive and negative control wells included in each 96 well-plate.
as §5, §6
(§13) The two compounds under investigation were tested along with reference compounds T20 and EFV on three wild-type viruses (pNL4-3, green curves; pNL-Bal, blue curves and pNL-AD87, orange curves) using the deCIPhR cellular system (see paragraph 4.1).

pNL4-3 HIV-1 virus [5] = assay: microbe, parasite or virus in culture; assay type: cell-based; details: virus to cell infection, pNL4-3, X4 tropism
Method: Fully infectious HIV-1 is produced from proviral reference DNA reflecting a reference wild-type HIV-1 virus (pNL4-3, Genbank #AF003888).
(§1) Format for virus to cell infection: Briefly, the assay was performed in 6 well tissue culture plates and included 50'000 HIV-producing cells (HeLa) in a final volume of 2 mL DMEM medium (Gibco, Parsley, UK). After 2 days of incubation, […] of viral supernatant was added to 5'000 pre-incubated HIV-reporter cells (HeLaCCR5) in a final volume of […] of RPMI medium (Gibco, Parsley, UK) including […] of substances to be tested.
(§2) In this experiment only pNL4-3 reference HIV strain was used.
Graphs in FIG. 10 show the inhibition curves as percent of virus inhibition as a function of increasing concentrations of each compound. The table in FIG. 10 reports the calculated parameters of HIV inhibition (IC50, IC90 and Hill's coefficient).

pNL-Bal HIV-1 virus [6] = details: for Rf (resistance factor): pNL-Bal reference strain, ratio to itself
Method: as §7, §3, §11, §9, §12, §5, §6, §13

[7] = tested on: "G-I-A" mutant (pNL-Bal, gp41 V38A); details: for IC50: "G-I-A" mutant, R5; for Rf (resistance factor: IC50 on mutant virus / IC50 on reference strain): "G-I-A" vs pNL-Bal; for Resistance factor (IC50 mut/IC50 wt) IC50 fold increase: Table II, "G-I-A" vs wild-type pNL-Bal
binding of gp120 to α4β7 = assay: gp120 binding to α4β7 in cell extracts (previous studies); set-up: species or system human; details: read-out: activity of inhibition of the binding of gp120 to α4β7
From the text: FIG. 37: Activity of a panel of inhibitors in blocking the binding of gp120 to a4b7. (a) The left chart depicts data collected in example 3 using ELISA assay. (b) The right chart depicts data collected by screening cell extracts. Bold letters used for a compound denote active compounds. The remaining compounds are weak or non-inhibitors All assays were repeated six times (three times for each anti-gp120 mAb used in the case of the ELISA data) and an average was presented. All values were obtained within 5% deviation.
This method was advanced into an ELISA format and applied to screen the number of compounds provided within the research period.
Outcome: Repandusinic acid A inhibited the binding of gp120 to α4β7 with an activity of 1.2±0.1 μM using the described an ELISA assay.
The five-step assay developed was applied to screen the panel of compounds provided. […] The experiments were run in triplicate using two antibodies against gp120. The data was compiled and plotted (FIG. 37a) and compared against the results with less accuracy obtained in our prior studies (FIG. 37b). Only modest changes were observed between the in vitro studies conducted herein (FIG. 37a) and those conducted on cell lysates (FIG. 37b). Results obtained are described in detail in the figure legend to FIG. 37 herein above.

HIV = assay: profiling of anti-HIV activity, summary over lab strains; assay type: cell-based, HIV-1; details: summary of Example 2 results
deCIPhR cellular system = details: at tested concentrations
From the text: as §5, §13

[8] = tested on: HIV-reporter cells (HeLaCCR5); assay: cytotoxicity microscopically observed in virus-to-cell infection format; assay type: cell-based; details: highest concentration
Method: as §1, §2

pNL4-3 HIV-1 virus [9] = details: cell to cell infection, pNL4-3, X4 tropism
Method: as §3, §4, §5, §6

pNL-AD87 HIV-1 virus [10] = details: cell to cell infection, pNL-AD87, R5 tropism
Method: as §7, §3, §8, §9, §10

| Molecule | IC50 (pNL4-3 HIV-1 virus [1]) | IC50 (pNL-AD87 HIV-1 virus [2]) | IC50 [3] | Rf (resistance factor: IC50 on mutant virus / IC50 on reference strain) [3] | Resistance factor (IC50 mut/IC50 wt) IC50 fold increase [3] | Rf (resistance factor) (pNL-Bal HIV-1 virus [6]) | IC50 [7] | Rf (resistance factor: IC50 on mutant virus / IC50 on reference strain) [7] | Resistance factor (IC50 mut/IC50 wt) IC50 fold increase [7] | further results |
| --- | --- | --- | --- | --- | --- | --- | --- | --- | --- | --- |
| O=C1Nc2ccc(Cl)cc2[C@@](C#CC2CC2)(C(F)(F)F)O1 [EFV, Efavirenz] | 9 nM | 1 nM | 3 nM | 0.6 | 0.5 | 1 | 1.7 nM | 0.3 | 0.3 | IC50 (pNL-Bal HIV-1 virus [4]; read-out: IC50 (concentration inhibiting 50% of viral replication)): 5 nM; IC50 (pNL4-3 HIV-1 virus [5]; Human immunodeficiency virus 1, read-out: IC50): 2 nM |
| O=C(O)C=C(C(=O)OC1C2COC(=O)c3cc(O)c(O)c(O)c3-c3c(cc(O)c(O)c3O)C(=O)OC1C(O)C(OC(=O)c1cc(O)c(O)c(O)c1)O2)C1c2c(cc(O)c(O)c2O)C(=O)OC1C(=O)O (stereo not shown) [Repandusinic acid A] | – | – | – | – | – | – | – | – | – | IC50 (binding of gp120 to α4β7): 9080 nM |
| O=C(CNC1CCCCC1)Nc1cccc(C(=O)Nc2cccc(C(F)(F)F)c2)c1 [T0520-5895] | > 30000 nM | 250 nM | > 30000 nM | >40 | >40 | 1 | 7600 nM | 0.5 | 0.5 | IC50 (pNL-Bal HIV-1 virus [4]; read-out: IC50, extrapolated value): 15100 nM; IC50 (pNL4-3 HIV-1 virus [5]): inactive; anti-HIV activity (HIV): significant anti-HIV activity; signs of cytotoxicity (deCIPhR cellular system): without signs of cytotoxicity; signs of cytotoxicity [8]: signs of cytotoxicity |
| enfuvirtide | – | – | 2270 nM | 227 | 227 | 1 | 127 nM | 12.7 | 13 | IC50 (pNL4-3 HIV-1 virus [5]; read-out: IC50): 48 nM; IC50 (pNL-Bal HIV-1 virus [6]; read-out: IC50 (concentration inhibiting 50% of viral replication), cell to cell infection, pNL-Bal, R5 tropism): 10 nM; IC50 (pNL4-3 HIV-1 virus [9]): 76 nM; IC50 (pNL-AD87 HIV-1 virus [10]): 63 nM |

Source: patent publication US9422527B2, “Drug target site within gp120 of HIV” (priority 2011, dated 2016)
